Results on one compound are retold here after US10780127B2, “Method for producing fermented milk having high angiotensin converting enzyme inhibitory activity and method for producing physiologically active peptide” (NATIONAL UNIVERSITY CORPORATION TOTTORI UNIVERSITY, priority 2016, dated 2020).

Read-outs that look alike come from different tables or passages of the source. Peptide text beside a SMILES is read from it.

For assay [1], the target named is T1, ACE (Homo sapiens, UniProt P12821). The assay is described as follows: Reported IC50 value of YP for ACE. In kind it is biochemical. The conditions noted are these: corresponds to 720 μM; read-out: IC50 value of YP for ACE, corresponding mass concentration (converted).
T1 sequence (P12821 30-1306, species assumed): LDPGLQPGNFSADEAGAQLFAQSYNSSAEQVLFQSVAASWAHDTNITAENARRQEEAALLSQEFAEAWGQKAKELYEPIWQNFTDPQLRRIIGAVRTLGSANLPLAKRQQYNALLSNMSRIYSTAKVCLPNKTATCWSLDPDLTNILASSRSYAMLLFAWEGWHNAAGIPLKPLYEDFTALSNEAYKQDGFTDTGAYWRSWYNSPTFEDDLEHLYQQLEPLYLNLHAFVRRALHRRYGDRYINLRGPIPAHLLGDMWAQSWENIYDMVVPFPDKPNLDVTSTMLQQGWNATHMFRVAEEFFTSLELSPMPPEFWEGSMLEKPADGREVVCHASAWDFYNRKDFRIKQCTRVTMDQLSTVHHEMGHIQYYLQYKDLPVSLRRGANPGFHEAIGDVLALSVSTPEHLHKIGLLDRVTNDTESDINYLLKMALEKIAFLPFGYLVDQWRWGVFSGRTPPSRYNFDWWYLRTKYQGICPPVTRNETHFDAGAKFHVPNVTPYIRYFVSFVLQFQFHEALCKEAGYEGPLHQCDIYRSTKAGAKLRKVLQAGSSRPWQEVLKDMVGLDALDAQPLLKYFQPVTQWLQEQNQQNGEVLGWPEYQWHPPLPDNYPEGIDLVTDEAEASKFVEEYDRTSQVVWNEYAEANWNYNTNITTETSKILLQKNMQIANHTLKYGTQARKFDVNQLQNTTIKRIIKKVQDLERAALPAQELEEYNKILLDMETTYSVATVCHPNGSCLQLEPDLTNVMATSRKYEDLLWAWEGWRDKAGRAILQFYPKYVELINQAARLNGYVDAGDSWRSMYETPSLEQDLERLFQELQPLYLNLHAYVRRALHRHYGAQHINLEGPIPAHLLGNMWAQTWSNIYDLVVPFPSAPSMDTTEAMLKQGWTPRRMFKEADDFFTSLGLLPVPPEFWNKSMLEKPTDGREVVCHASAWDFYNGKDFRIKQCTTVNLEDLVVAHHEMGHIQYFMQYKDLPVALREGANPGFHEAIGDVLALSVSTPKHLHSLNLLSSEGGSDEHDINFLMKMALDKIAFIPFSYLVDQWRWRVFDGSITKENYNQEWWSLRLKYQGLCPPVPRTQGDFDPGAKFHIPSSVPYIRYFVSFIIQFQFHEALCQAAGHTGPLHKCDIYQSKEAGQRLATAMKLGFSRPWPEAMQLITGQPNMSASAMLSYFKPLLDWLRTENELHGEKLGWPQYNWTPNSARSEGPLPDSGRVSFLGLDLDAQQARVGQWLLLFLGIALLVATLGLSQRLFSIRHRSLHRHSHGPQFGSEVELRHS
For assay [2], the target named is T1, ACE. As to conditions: reported value; read-out: IC50 value of YP for ACE; cited from earlier work.

In the case of `N[C@@H](Cc1ccc(O)cc1)C(=O)N1CCC[C@H]1C(=O)O` [YP, Tyr-Pro] (H-Tyr-Pro-OH), the IC50 on ACE [1] was 719 µM; on ACE [2], 720 µM.
